Test results: ChEMBL document CHEMBL3879901, “Substituted isoquinolin-1(2H)-ones, and methods of use thereof” (2012)
pEC50, pIC50: −log10 of the molar value.

Tests used:
[1] = target: PI3-kinase p110-alpha/p85-alpha (Homo sapiens, UniProt P42336); assay: Inhibition of N-terminal His6-tagged recombinant full-length human p110alpha/untagged recombinant full length human p85alpha expressed in baculovirus infected Sf21 cells using phosphatidylinositol as substrate in presence of gamma-32P-ATP after 5 mins by thin layer chromatographic method
[2] = target: PI3-kinase p110-delta/p85-alpha (Homo sapiens, UniProt O00329); assay: Inhibition of N-terminal His6-tagged recombinant full-length human p110delta/untagged recombinant full length p85alpha expressed in baculovirus infected Sf21 cells using phosphatidylinositol as substrate in presence of gamma-32P-ATP after 5 mins by thin layer chromatographic method
PI3K p110 beta/p85 alpha = PI3K p110 beta/p85 alpha (Homo sapiens, UniProt P42338); assay: Inhibition of N-terminal His6-tagged recombinant full-length human p110beta/untagged recombinant full length p85alpha expressed in baculovirus infected Sf21 cells using phosphatidylinositol as substrate in presence of gamma-32P-ATP after 5 mins by thin layer chromatographic method
[3] = Antiproliferative activity against Balb/c mouse splenic B cells preincubated for 30 mins followed by LPS or F(ab')2 donkey anti-mouse IgM and recombinant mouse IL4 stimulation measured after 72 hrs by Alamar Blue reduction assay; assay type: functional, cell-based

Chain of PI3-kinase p110-alpha/p85-alpha (P27986 whole entry): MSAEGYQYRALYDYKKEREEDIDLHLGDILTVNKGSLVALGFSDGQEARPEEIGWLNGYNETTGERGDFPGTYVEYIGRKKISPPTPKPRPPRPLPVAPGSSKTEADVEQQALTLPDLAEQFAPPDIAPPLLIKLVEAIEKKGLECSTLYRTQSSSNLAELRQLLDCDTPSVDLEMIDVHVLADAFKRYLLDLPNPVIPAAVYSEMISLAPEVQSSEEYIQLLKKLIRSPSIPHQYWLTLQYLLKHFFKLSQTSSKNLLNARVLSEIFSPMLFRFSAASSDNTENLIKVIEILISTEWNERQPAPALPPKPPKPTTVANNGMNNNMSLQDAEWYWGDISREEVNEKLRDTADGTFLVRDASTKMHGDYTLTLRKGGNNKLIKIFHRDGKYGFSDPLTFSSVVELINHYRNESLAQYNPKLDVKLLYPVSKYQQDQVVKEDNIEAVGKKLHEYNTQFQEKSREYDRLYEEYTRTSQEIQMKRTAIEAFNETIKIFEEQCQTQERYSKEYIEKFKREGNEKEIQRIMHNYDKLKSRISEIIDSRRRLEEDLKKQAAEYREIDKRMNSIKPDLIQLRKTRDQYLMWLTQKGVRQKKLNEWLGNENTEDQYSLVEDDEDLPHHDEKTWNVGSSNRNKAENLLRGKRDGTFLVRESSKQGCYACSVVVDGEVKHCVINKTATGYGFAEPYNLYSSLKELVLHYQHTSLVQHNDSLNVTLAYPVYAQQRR
Chain of PI3-kinase p110-alpha/p85-alpha (P42336 whole entry): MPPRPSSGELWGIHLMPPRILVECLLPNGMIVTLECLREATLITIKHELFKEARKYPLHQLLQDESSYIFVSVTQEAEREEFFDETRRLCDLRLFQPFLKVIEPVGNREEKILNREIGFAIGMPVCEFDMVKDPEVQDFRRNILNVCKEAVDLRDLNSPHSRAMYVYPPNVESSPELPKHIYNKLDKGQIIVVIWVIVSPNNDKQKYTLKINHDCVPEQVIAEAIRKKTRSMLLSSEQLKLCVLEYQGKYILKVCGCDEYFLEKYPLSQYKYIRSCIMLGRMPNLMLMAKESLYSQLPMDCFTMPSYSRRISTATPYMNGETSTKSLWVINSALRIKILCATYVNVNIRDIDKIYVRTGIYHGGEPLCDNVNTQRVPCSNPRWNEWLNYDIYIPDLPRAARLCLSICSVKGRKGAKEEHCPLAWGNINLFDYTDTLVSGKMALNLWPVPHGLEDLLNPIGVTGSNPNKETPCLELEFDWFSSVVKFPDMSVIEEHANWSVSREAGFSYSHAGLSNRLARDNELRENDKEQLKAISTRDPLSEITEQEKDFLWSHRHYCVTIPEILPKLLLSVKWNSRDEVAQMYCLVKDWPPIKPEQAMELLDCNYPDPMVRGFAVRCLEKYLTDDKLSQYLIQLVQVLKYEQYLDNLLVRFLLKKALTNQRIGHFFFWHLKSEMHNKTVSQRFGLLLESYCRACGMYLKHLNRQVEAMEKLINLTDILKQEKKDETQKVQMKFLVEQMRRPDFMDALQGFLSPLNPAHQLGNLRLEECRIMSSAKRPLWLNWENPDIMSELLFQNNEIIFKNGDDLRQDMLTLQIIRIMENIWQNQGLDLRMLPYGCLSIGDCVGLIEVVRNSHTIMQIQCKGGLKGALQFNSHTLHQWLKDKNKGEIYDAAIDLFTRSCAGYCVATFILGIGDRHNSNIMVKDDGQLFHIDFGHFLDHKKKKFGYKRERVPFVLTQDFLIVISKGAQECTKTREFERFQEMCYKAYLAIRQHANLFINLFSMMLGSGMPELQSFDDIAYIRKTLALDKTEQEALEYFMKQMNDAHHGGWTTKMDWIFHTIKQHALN
Chain of PI3-kinase p110-delta/p85-alpha (P27986 whole entry): as the sequence (P27986 whole entry) above
Chain of PI3-kinase p110-delta/p85-alpha (O00329 whole entry): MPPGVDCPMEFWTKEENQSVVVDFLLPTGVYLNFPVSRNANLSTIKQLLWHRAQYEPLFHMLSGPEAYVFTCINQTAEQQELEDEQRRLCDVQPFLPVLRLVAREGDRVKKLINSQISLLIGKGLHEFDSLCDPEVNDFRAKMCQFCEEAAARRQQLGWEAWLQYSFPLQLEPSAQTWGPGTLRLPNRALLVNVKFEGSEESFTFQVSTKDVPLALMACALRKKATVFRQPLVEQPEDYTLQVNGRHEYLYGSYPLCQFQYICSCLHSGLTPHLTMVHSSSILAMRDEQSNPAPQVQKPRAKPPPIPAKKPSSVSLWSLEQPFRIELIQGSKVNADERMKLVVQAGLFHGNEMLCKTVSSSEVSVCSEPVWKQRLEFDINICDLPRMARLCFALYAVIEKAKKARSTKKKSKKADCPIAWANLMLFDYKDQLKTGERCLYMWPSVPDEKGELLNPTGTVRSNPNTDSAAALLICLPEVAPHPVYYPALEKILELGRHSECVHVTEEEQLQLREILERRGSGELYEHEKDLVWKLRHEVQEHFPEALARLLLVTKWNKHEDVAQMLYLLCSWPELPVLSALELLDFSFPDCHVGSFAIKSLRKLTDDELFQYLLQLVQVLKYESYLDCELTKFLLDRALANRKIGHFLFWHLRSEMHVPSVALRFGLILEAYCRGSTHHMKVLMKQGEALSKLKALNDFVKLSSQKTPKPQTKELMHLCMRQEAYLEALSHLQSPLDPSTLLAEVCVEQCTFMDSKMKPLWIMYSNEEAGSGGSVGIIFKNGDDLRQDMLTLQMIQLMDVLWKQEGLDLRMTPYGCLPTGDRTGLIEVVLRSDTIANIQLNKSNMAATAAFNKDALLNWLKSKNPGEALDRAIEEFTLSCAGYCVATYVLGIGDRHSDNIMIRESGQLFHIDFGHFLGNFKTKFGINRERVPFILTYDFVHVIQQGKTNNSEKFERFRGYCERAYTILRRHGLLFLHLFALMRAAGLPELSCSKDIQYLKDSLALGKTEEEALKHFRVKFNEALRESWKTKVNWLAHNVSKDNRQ
Chain of PI3K p110 beta/p85 alpha (P27986 whole entry): as the sequence (P27986 whole entry) above
Chain of PI3K p110 beta/p85 alpha (P42338 whole entry): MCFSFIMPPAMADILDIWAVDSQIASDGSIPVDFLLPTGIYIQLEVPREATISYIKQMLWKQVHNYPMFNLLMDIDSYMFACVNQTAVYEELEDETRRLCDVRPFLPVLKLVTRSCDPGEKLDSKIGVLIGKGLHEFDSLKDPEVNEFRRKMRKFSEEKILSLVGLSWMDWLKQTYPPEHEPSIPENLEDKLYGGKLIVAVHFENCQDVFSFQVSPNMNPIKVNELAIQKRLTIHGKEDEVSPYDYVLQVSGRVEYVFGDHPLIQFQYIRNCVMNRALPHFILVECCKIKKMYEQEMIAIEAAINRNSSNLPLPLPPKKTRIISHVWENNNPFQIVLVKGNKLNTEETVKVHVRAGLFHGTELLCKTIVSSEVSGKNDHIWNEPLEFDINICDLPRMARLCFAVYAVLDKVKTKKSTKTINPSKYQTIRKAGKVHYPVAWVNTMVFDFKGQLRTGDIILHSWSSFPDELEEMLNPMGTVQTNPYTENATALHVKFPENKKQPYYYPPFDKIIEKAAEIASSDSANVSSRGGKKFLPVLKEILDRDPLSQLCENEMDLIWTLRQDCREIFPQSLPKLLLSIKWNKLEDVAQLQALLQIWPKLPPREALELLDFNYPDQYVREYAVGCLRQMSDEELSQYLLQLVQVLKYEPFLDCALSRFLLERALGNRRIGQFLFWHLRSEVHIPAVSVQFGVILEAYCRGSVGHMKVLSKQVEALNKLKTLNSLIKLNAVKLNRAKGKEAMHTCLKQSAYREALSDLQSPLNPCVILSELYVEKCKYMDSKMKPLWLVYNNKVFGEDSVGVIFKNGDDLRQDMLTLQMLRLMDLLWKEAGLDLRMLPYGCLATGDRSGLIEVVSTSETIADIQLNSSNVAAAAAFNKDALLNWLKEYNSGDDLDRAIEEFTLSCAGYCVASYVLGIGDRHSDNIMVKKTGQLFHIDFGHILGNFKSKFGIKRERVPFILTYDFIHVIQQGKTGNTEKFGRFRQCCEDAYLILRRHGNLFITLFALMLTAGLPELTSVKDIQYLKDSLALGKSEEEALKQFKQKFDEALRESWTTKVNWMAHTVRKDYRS

Row | Structure (SMILES) | pIC50 [1] | pIC50 [2] | pIC50 (PI3K p110 beta/p85 alpha) | pEC50 [3]
1 | Cc1ccccc1-n1c(Cn2nc(-c3ccc(O)c(F)c3)c3c(N)ncnc32)cc2cccc(C)c2c1=O | < 5.00 | > 7.00 | – | > 6.00
2 | Cc1ccccc1-n1c(Cn2nc(-c3ccc(Cl)c(O)c3)c3c(N)ncnc32)cc2cccc(C)c2c1=O | < 5.00 | > 7.00 | > 5.00 | > 7.00
3 | Cc1cccc2cc(Cn3nc(-c4cccc(O)c4)c4c(N)ncnc43)n(-c3ccccc3O)c(=O)c12 | < 5.00 | > 7.00 | > 5.00 | > 7.00
4 | Cc1ccccc1-n1c(Cn2nc(Br)c3c(N)ncnc32)cc2cccc(C)c2c1=O | < 5.00 | > 7.00 | – | > 6.00
5 | Cc1cccc2cc(Cn3nc(I)c4c(N)ncnc43)n(-c3ccccc3O)c(=O)c12 | < 5.00 | > 7.00 | < 5.00 | > 6.00
6 | Cc1cccc2cc(Cn3nc(I)c4c(N)ncnc43)n(C3CCCCC3)c(=O)c12 | < 5.00 | > 6.00 | < 5.00 | > 5.00
7 | Cc1ccccc1-n1c(Cn2nc(-c3ccc(F)c(O)c3)c3c(N)ncnc32)cc2cccc(C)c2c1=O | < 5.00 | > 7.00 | > 5.00 | > 7.00
8 | Cc1cccc2cc(Cn3nc(-c4cccc(O)c4)c4c(N)ncnc43)n(-c3ccccc3C(C)C)c(=O)c12 | < 5.00 | > 7.00 | – | > 7.00
9 | Cc1cccc2cc(Cn3nc(-c4ccc(Cl)c(O)c4)c4c(N)ncnc43)n(-c3ccccc3F)c(=O)c12 | < 5.00 | > 7.00 | < 5.00 | > 6.00
10 | Cc1cccc2cc(Cn3nc(-c4cccc(O)c4)c4c(N)ncnc43)n(C(C)C)c(=O)c12 | < 5.00 | > 7.00 | > 6.00 | > 7.00
11 | Cc1ccccc1-n1c(Cn2nc(-c3cccc(O)c3)c3c(N)ncnc32)cc2cccc(F)c2c1=O | < 5.00 | > 7.00 | < 5.00 | –
12 | COc1ccc(-c2nn(Cc3cc4cccc(C)c4c(=O)n3-c3ccccc3C)c3ncnc(N)c23)cc1 | < 5.00 | > 6.00 | – | > 6.00
13 | Cc1cccc2cc(Cn3nc(-c4ccc(F)c(O)c4)c4c(N)ncnc43)n(C3CCCC3)c(=O)c12 | < 5.00 | > 7.00 | < 5.00 | –
14 | Cc1ccccc1-n1c(Cn2nc(-c3ccc(F)c(O)c3)c3c(N)ncnc32)cc2cccc(F)c2c1=O | < 5.00 | > 7.00 | < 5.00 | –
15 | Cc1ccccc1-n1c(Cn2nc(I)c3c(N)ncnc32)cc2ccccc2c1=O | < 5.00 | > 6.00 | – | > 6.00
16 | Cc1ccccc1-n1c(Cn2nc(-c3cnc4[nH]ccc4c3)c3c(N)ncnc32)cc2cccc(C)c2c1=O | < 5.00 | > 7.00 | – | > 7.00
17 | Cc1cccnc1-n1c(Cn2nc(-c3cc(O)cc(F)c3)c3c(N)ncnc32)cc2cccc(C)c2c1=O | < 5.00 | > 7.00 | – | > 7.00
18 | Cc1ccccc1-n1c(Cn2nc(-c3ccc(Cl)c(O)c3)c3c(N)ncnc32)cc2ccccc2c1=O | < 5.00 | > 7.00 | < 5.00 | –

Further lines, with some results ahead:

Row | pIC50 [1] | pIC50 [2] | pIC50 (PI3K p110 beta/p85 alpha) | Structure (SMILES) | pEC50 [3]
19 | < 5.00 | > 6.00 | < 5.00 | Cc1ccccc1-n1c(Cn2nc(-c3ccn[nH]3)c3c(N)ncnc32)cc2cccc(C)c2c1=O | –
20 | > 4.00 | > 7.00 | > 7.00 | CC(=O)Nc1nc2ccc(-c3nn(Cc4cc5cccc(C)c5c(=O)n4C4CC4)c4ncnc(N)c34)cc2s1 | > 7.00
21 | < 5.00 | > 6.00 | > 5.00 | Cc1ccccc1-n1c(Cn2nc(C#C[C@H](C)O)c3c(N)ncnc32)cc2cccc(C)c2c1=O | > 6.00
22 | < 5.00 | > 7.00 | > 5.00 | Cc1cccc2cc(Cn3nc(-c4ccc(F)c(O)c4)c4c(N)ncnc43)n(C(C)C)c(=O)c12 | > 7.00
23 | < 5.00 | > 7.00 | > 5.00 | Cc1ccccc1-n1c(Cn2nc(-c3cn[nH]c3)c3c(N)ncnc32)cc2cccc(C)c2c1=O | > 7.00
24 | > 5.00 | > 7.00 | > 5.00 | CCc1ccccc1-n1c(Cn2nc(-c3cn[nH]c3)c3c(N)ncnc32)cc2cccc(C)c2c1=O | > 7.00
25 | < 5.00 | > 7.00 | – | Cc1ccccc1-n1c(Cn2nc(-c3ccc4cc[nH]c4c3)c3c(N)ncnc32)cc2cccc(C)c2c1=O | > 6.00
26 | < 5.00 | > 7.00 | < 5.00 | CCc1ccccc1-n1c(Cn2nc(-c3cccc(O)c3)c3c(N)ncnc32)cc2cccc(C)c2c1=O | > 7.00
27 | > 5.00 | > 7.00 | > 5.00 | Cc1cccc2cc(Cn3nc(-c4cc(O)cc(F)c4)c4c(N)ncnc43)n(C3CCC3)c(=O)c12 | > 7.00
28 | > 6.00 | > 7.00 | > 5.00 | Cc1ccccc1-n1c(Cn2nc(-c3ccc4nc(N)sc4c3)c3c(N)ncnc32)cc2cccc(C)c2c1=O | > 6.00
29 | > 5.00 | > 7.00 | > 5.00 | COc1ccccc1-n1c(Cn2nc(-c3cc(O)cc(F)c3)c3c(N)ncnc32)cc2cccc(C)c2c1=O | > 7.00
30 | > 6.00 | > 7.00 | > 6.00 | Cc1cccc2cc(Cn3nc(-c4cc(O)cc(F)c4)c4c(N)ncnc43)n(-c3ccccc3C(C)C)c(=O)c12 | > 7.00
31 | > 6.00 | > 7.00 | > 7.00 | Cc1cccc2cc(Cn3nc(-c4cc(O)cc(F)c4)c4c(N)ncnc43)n(C3CC3)c(=O)c12 | > 7.00
32 | > 6.00 | > 7.00 | > 5.00 | Cc1cccc2cc(Cn3nc(-c4cc(O)cc(F)c4)c4c(N)ncnc43)n(-c3ccccc3)c(=O)c12 | > 7.00
33 | > 6.00 | > 7.00 | > 5.00 | Cc1ccccc1-n1c(Cn2nc(-c3ccc4nc(N)ccc4c3)c3c(N)ncnc32)cc2cccc(C)c2c1=O | > 7.00
34 | > 5.00 | > 7.00 | > 6.00 | Cc1cccc2cc(Cn3nc(-c4cc(O)cc(F)c4)c4c(N)ncnc43)n(-c3ccccc3O)c(=O)c12 | > 7.00
35 | > 5.00 | > 7.00 | > 6.00 | Cc1cccc2cc(Cn3nc(-c4cc(O)cc(F)c4)c4c(N)ncnc43)n(-c3ccccc3Cl)c(=O)c12 | > 7.00
36 | > 4.00 | > 7.00 | > 5.00 | CC(=O)Nc1nc2ccc(-c3nn(Cc4cc5cccc(C)c5c(=O)n4C(C)C)c4ncnc(N)c34)cc2s1 | > 7.00
37 | > 4.00 | > 7.00 | > 6.00 | CC(=O)Nc1nc2ccc(-c3nn(Cc4cc5cccc(C)c5c(=O)n4C4CCC4)c4ncnc(N)c34)cc2s1 | > 7.00
38 | > 4.00 | > 7.00 | > 7.00 | CC(=O)Nc1nc2ccc(-c3nn(Cc4cc5cccc(Cl)c5c(=O)n4C4CC4)c4ncnc(N)c34)cc2s1 | > 7.00
39 | > 6.00 | > 7.00 | > 5.00 | CC(=O)Nc1nc2ccc(-c3nn(Cc4cc5cccc(C)c5c(=O)n4-c4ccccc4)c4ncnc(N)c34)cc2s1 | > 7.00
